What was measured:
adipose-like organoids [1] = assay: TNF-α challenge with RT-PCR of adipocyte markers; assay type: cell-based, human; conditions: TNF-α treatment
Description: (§1) Adipose organoids were seeded and cultured as described above. After 7 days of culture, medium was changed from AMM to AMM supplemented with or without 50 ng/ml TNF-α (Peprotech). The following day, organoids were either flash frozen for PCR analysis, fixed for histology, or used for an IL-6 enzyme-linked immunosorbent assay (ELISA).
RNA was extracted from either 2D cultures or 3D organoids using a Qiagen RNeasy Plus Micro kit following manufacturer's protocols. RNA was converted to cDNA with SuperScript™ IV VILO™ Master Mix (Fisher Scientific). cDNA was amplified with human primers (IDT Technologies) listed in Table 1. Primers for insulin receptor were designed using Primer3 software (NIH) and verified using BLAST database (NIH), with gene coding obtained from GenBank (NIH).
Real-time PCR was performed using a SYBER master mix (Fisher Scientific) and CFX96 Real Time System (Bio Rad). Adiponectin and PPAR-γ expression were normalized to GAPDH (IDT Technologies) and compared to either FBS treated controls (2D) or organoids without microvessels (3D). After RT-PCR, amplified cDNA was loaded into a 2% agarose gel and run at 90V. Gels were imaged for SYBER green on a gel scanner (Azure Biosystems).

adipose-like organoids [2] = assay: TNF-α challenge with IL-6 ELISA; assay type: cell-based, human; conditions: 50 ng/ml TNF-α, approximately 24 hours, organoids with and without microvessels
Description: as §1
Organoids with and without microvessels and with or without TNF-α treatment were transferred with their supernatants to micro-centrifuge tubes and briefly homogenized with a plastic pestle. Samples were diluted and centrifuged for 2 minutes at 12,000 rcf to pellet remaining matrix and cell debris. An ELISA was performed with the supernatant following manufacturer instructions (R&D systems) to measure secreted interleukin-6 (IL-6) as a marker of adipocyte inflammation and dysfunction.

human microvessels = conditions: 50 ng/ml VEGF in serum free medium, 6 days of culture, versus no VEGF
microvessels = assay: Microvessel growth (vessel length) under different culture media, FIG. 13; assay type: cell-based, human; conditions: medium or supplement used for microvessel culture
Source text: FIG. 13 is a graph depicting vessel length (mm) of organoids cultured under a variety of conditions (serum free+VEGF, 10% FBS, RPMI/B-27/VEGF, ADM, AMM, RPMI/B-27+IM, RMPI/B-27+Dex, RPMI/B-27+IBMX).

adipose-like organoids [3] = assay: Lipolysis assay (glycerol production), 3D organoids; assay type: cell-based, human; conditions: 1 μM isoproterenol for 4 hours, organoids with and without microvessels
Description: A lipolysis assay was performed on 2D (after 24 days of 2D culture) and 3D cultures (after 17 days of 2D and 7 days of 3D culture), using a commercially available kit (Sigma). Samples were treated with 1 μM isoproterenol for 4 hours. For 2D cultures, supernatants were then mixed with the reaction solution and incubated according to manufacturer's instructions. For 3D cultures, organoids were homogenized in the supernatant after isoproterenol incubation using a plastic pestle, to release glycerol trapped inside the organoid. The homogenized sample was briefly centrifuged, and supernatants were used for the remainder of the manufacturer's protocol. Samples were read at 570 nm using a plate reader (BioTek Instruments). For 2D cultures, samples cultured in FBS were used as control samples that will not undergo lipolysis. For 3D samples, negative controls were not treated with isoproterenol.

TNF-α
adiponectin expression (adipose-like organoids [1]; organoids with microvessels): small but distinct downregulation | adiponectin expression (adipose-like organoids [1]; organoids with no microvessels): changed minimally | IL-6 secretion (adipose-like organoids [2]): dramatically increased IL-6 secretion

vascular endothelial growth factor [VEGF]
vascular growth / vessel density of microvessels (human microvessels): significantly increased vascular growth

CC(C)Cn1c(=O)n(C)c(=O)c2[nH]cnc21 [IBMX, 3-isobutyl-1-methylxanthine]
microvessel growth (microvessels): permanently impeded microvessel growth

CC(C)NCC(O)c1ccc(O)c(O)c1 (stereo not drawn) [isoproterenol]
glycerol production in response to isoproterenol (adipose-like organoids [3]): produced glycerol
